What was measured:
T. brucei brucei = settings: ip doses as low as 3 × 1 mg/kg; cure = survival more than 30 days beyond controls; cited from earlier work
[1] = at micromolar concentrations; cited from earlier work
T. brucei rhodesiense = assay type: in vivo; settings: for Cures: cure = survival for more than 60 days after infection without a parasitemia relapse, cured/treated mice; for In vivo toxicity: 4×50 mg/kg ip in infected mice
[2] = tested on: T. brucei rhodesiense STIB900; assay type: cell-based, Trypanosoma brucei rhodesiense; settings: STIB900 strain, in vitro
[3] = 4×50 mg/kg ip on days 3–6 post-infection

| SMILES | Cures (T. brucei rhodesiense; [3]) | In vivo toxicity (T. brucei rhodesiense) | further results |
| --- | --- | --- | --- |
| CS(=O)(=O)O.O=C(Nc1ccc(C2=NCCN2)cc1)c1ccc(C(=O)Nc2ccc(C3=NCCN3)cc2)cc1 [Compound 1, N,N'-Bis[4-(4,5-dihydro-1H-imidazol-2-yl)phenyl]terephthalamide dimesylate] | – | – | Cure of T. brucei brucei-infected mice (T. brucei brucei): completely cured; Mutagenicity [1]: mutagenic |
| CS(=O)(=O)O.O=C(Nc1ccc(C2=NCCN2)cc1)c1cccc(C(=O)Nc2ccc(C3=NCCN3)cc2)c1 [Compound 2, N,N'-Bis[4-(4,5-dihydro-1H-imidazol-2-yl)phenyl]isophthalamide dimesylate] | completely curative | – | – |
| CS(=O)(=O)O.O=C(Nc1ccc(C2=NCCN2)cc1)c1ccc(NC(=O)c2ccc(C3=NCCN3)cc2)cc1 [Compound 5, N-[4-(4,5-Dihydro-1H-imidazol-2-yl)phenyl]-4-[[4-(4,5-dihydro-1H-imidazol-2-yl)benzoyl]amino]benzamide dimesylate] | – | no in vivo toxicity | – |
| CS(=O)(=O)O.O=C(Nc1ccc(C2=NCCN2)cc1)c1ccc(-c2ccc(C(=O)Nc3ccc(C4=NCCN4)cc3)cc2)cc1 [Compound 8, N,N'-Bis[4-(4,5-dihydro-1H-imidazol-2-yl)phenyl]biphenyl-4,4’-dicarboxamide dimesylate] | ineffective | – | – |
| CS(=O)(=O)O.O=C(Nc1ccc(C2=NCCN2)cc1)c1ccc(C2=NCCN2)cc1 [Compound 10, N-[4-(4,5-Dihydro-1H-imidazol-2-yl)phenyl]-4-(4,5-dihydro-1H-imidazol-2-yl)benzamide dimesylate] | – | no in vivo toxicity | – |
| O=C(Nc1ccc(C2=NCCN2)cc1)c1ccc(-c2cc3ccc(C4=NCCN4)cc3[nH]2)cc1 [Compound 11, 6-(4,5-Dihydro-1H-imidazol-2-yl)-2-[4-[[[4-(4,5-dihydro-1H-imidazol-2-yl)phenyl]amino]carbonyl]phenyl]indole] | – | – | T. b. rhodesiense IC50 [2]: single digit nM |
| CS(=O)(=O)O.O=C(NCc1ccc(C2=NCCN2)cc1)c1ccc(-c2cc3ccc(C4=NCCN4)cc3[nH]2)cc1 [Compound 12, 6-(4,5-Dihydro-1H-imidazol-2-yl)-2-[4-[[[[4-(4,5-dihydro-1H-imidazol-2-yl)phenyl]methyl]amino]carbonyl]phenyl]indole dimesylate] | ineffective | lethal | T. b. rhodesiense IC50 [2]: single digit nM; Mean Survival Days (T. brucei rhodesiense; 4×50 mg/kg ip on days 3–6 post-infection, mice with and without parasitemia relapse): toxic ^d |
